Test results taken from patent US20070142317A1, “Topical composition for treatment of skin disorders” (QLT USA, Inc., priority 2003, published 2007).

Test system: U937 monocytoid cells
Test: TUNEL assay, dAd added at different times after dCF wash-out (Example 22)
Format: cell-based
Conditions: dCF 0 μM 2 days, wash, 2 more days
Protocol: At 0, 6, 24, and 48 hours, 50 μM dAd was added and the cells were incubated for an additional 2 days. At the end of the treatment period, the cells were harvested for analysis by a TUNEL assay, a flow-cytometry-based method to quantify the percentage of cells that have undergone apoptosis. The level of apoptosis is expressed as “% FITC shift”. As a positive control, the cells were exposed to 5 mM camptothecin for 2 days.

Compound: Nc1ncnc2c1ncn2[C@H]1C[C@H](O)[C@@H](CO)O1 [dAd, 2′-deoxyadenosine]
- % FITC Shift (50 μM dAd added 0 hr after wash-out): 1.6%
- % FITC Shift (50 μM dAd added 6 hr after wash-out): 2.2%
- % FITC Shift (50 μM dAd added 24 hr after wash-out): 2.2%
- % FITC Shift (50 μM dAd added 48 hr after wash-out): 1.0%
